Assay: xn = mol fraction of the nth substance listed
Details: 101 kPa, Liquid

CCCCCCCCCO [nonan-1-ol] + CCCCCO
Details	mass density, 293.15 K [kg/m3]	mass density, 298.15 K [kg/m3]	viscosity, 293.15 K [mPa·s]	viscosity, 298.15 K [mPa·s]
x2 = 0	827.9	824.4	11.68	9.671
x2 = 0.1155	826.6	823.1	10.72	8.891
x2 = 0.2155	825.6	822.2	9.71	8.083
x2 = 0.3161	824.5	821.1	8.734	7.313
x2 = 0.4052	823.6	820.1	8.071	6.815
x2 = 0.5066	822.4	818.9	7.27	6.128
x2 = 0.6079	821	817.5	6.582	5.55
x2 = 0.7036	819.6	816.1	5.898	5.017
x2 = 0.7935	818.2	814.7	5.192	4.473
x2 = 0.8913	816.6	813	4.631	3.976

CCCCCCCCCO [nonan-1-ol] + CCCCCCCO
Details	mass density, 293.15 K [kg/m3]	mass density, 298.15 K [kg/m3]	viscosity, 293.15 K [mPa·s]	viscosity, 298.15 K [mPa·s]
x2 = 0	827.9	824.4	11.68	9.671
x2 = 0.1181	827	823.6	11.16	9.249
x2 = 0.2245	826.6	823.2	10.56	8.777
x2 = 0.307	826.2	822.8	10.02	8.328
x2 = 0.4093	825.7	822.3	9.551	7.951
x2 = 0.5045	825.1	821.7	9.146	7.628
x2 = 0.5969	824.7	821.2	8.61	7.211
x2 = 0.6924	824.2	820.7	8.347	6.976
x2 = 0.7866	823.6	820.2	7.968	6.662
x2 = 0.8883	823	819.5	7.439	6.266

CCCCCCCCCCCO [1-undecanol] + CCCCCCCCCO
Details	mass density, 293.15 K [kg/m3]	mass density, 298.15 K [kg/m3]	viscosity, 293.15 K [mPa·s]	viscosity, 298.15 K [mPa·s]
x2 = 0	832.5	829	17.18	14.02
x2 = 0.1177	831.4	827.9	16.86	13.84
x2 = 0.248	830.8	827.4	16.21	13.3
x2 = 0.3116	830.5	827.1	15.57	12.72
x2 = 0.4007	830.2	826.8	15.49	12.68
x2 = 0.5017	829.8	826.4	14.66	12.03
x2 = 0.6004	829.4	826	13.83	11.33
x2 = 0.6921	829	825.6	13.5	11.12
x2 = 0.7943	828.6	825.2	12.79	10.55
x2 = 0.8915	828.1	824.7	12.06	9.982

CCCO [propan-1-ol] + CCCCCCCO
x1 = 1
Details	mass density [kg/m3]	viscosity [mPa·s]
293.15 K	803.5	2.272
298.15 K	799.6	1.966

CCCCCO [pentan-1-ol] + CCCCCCCCCO
x1 = 1
Details	mass density [kg/m3]	viscosity [mPa·s]
293.15 K	814.6	4.029
298.15 K	811	3.494

CCCCCCCCCCCO [1-undecanol] + CCCCCCCO
Details	mass density, 293.15 K [kg/m3]	mass density, 298.15 K [kg/m3]	viscosity, 293.15 K [mPa·s]	viscosity, 298.15 K [mPa·s]
x2 = 0	832.5	829	17.18	14.02
x2 = 0.1245	830.7	827.3	16.37	13.36
x2 = 0.2254	830	826.6	14.96	12.26
x2 = 0.2988	829.4	826	13.79	11.3
x2 = 0.4142	828.4	825	12.93	10.66
x2 = 0.5086	827.6	824.2	11.83	9.79
x2 = 0.5895	826.8	823.4	10.82	8.971
x2 = 0.6993	825.7	822.3	9.924	8.253
x2 = 0.7866	824.8	821.3	8.997	7.511
x2 = 0.8888	823.6	820.2	8.005	6.711

CCCCCCCO [heptan-1-ol] + CCCO
Details	mass density, 293.15 K [kg/m3]	mass density, 298.15 K [kg/m3]	viscosity, 293.15 K [mPa·s]	viscosity, 298.15 K [mPa·s]
x2 = 0	822.2	818.7	7.104	5.993
x2 = 0.09	821.2	817.7	6.596	5.614
x2 = 0.1795	820.2	816.7	6.08	5.158
x2 = 0.3279	818.2	814.6	5.288	4.519
x2 = 0.4103	816.9	813.3	4.862	4.174
x2 = 0.5058	815.3	811.7	4.282	3.714
x2 = 0.6106	813.5	809.8	3.825	3.342
x2 = 0.6991	811.6	807.9	3.443	3.009
x2 = 0.7989	809.3	805.6	3.011	2.634
x2 = 0.8882	807	803.2	2.643	2.34

CCCCCCCO [heptan-1-ol] + CCCCCCCCCCCO
x1 = 1
Details	mass density [kg/m3]	viscosity [mPa·s]
293.15 K	822.2	7.104
298.15 K	818.7	5.993

CCCCCCCCCO [nonan-1-ol] + CCCO
Details	mass density, 293.15 K [kg/m3]	mass density, 298.15 K [kg/m3]	viscosity, 293.15 K [mPa·s]	viscosity, 298.15 K [mPa·s]
x2 = 0	827.9	824.4	11.68	9.671
x2 = 0.0808	826.5	823.1	10.86	9.007
x2 = 0.2286	824.6	821.2	9.037	7.55
x2 = 0.3296	823.1	819.6	7.921	6.701
x2 = 0.4104	821.7	818.2	7.097	6.002
x2 = 0.5176	819.5	816	6.051	5.147
x2 = 0.6051	817.6	814	5.268	4.513
x2 = 0.6801	815.5	811.9	4.501	3.904
x2 = 0.7961	811.9	808.3	3.583	3.129
x2 = 0.8945	808.3	804.5	2.9	2.554

CCCCCCCCCO [nonan-1-ol] + CCCCCCCCCCCO
x1 = 1
Details	mass density [kg/m3]	viscosity [mPa·s]
293.15 K	827.9	11.68
298.15 K	824.4	9.671

CCCCCO [pentan-1-ol] + CCCCCCCCCCCO
x1 = 1
Details	mass density [kg/m3]	viscosity [mPa·s]
293.15 K	814.6	4.029
298.15 K	811	3.494

CCCO [propan-1-ol] + CCCCCO
x1 = 1
Details	mass density [kg/m3]	viscosity [mPa·s]
293.15 K	803.5	2.272
298.15 K	799.6	1.966

CCCCCO [pentan-1-ol] + CCCO
Details	mass density, 293.15 K [kg/m3]	mass density, 298.15 K [kg/m3]	viscosity, 293.15 K [mPa·s]	viscosity, 298.15 K [mPa·s]
x2 = 0	814.6	811	4.029	3.494
x2 = 0.0959	813.7	810.1	3.825	3.325
x2 = 0.2143	812.8	809.1	3.584	3.126
x2 = 0.2969	812	808.4	3.446	3.008
x2 = 0.4097	810.9	807.2	3.214	2.828
x2 = 0.5053	809.9	806.2	3.072	2.695
x2 = 0.5963	809	805.2	2.908	2.537
x2 = 0.6924	807.8	804	2.758	2.402
x2 = 0.7892	806.6	802.8	2.582	2.283
x2 = 0.8797	805.4	801.5	2.442	2.126

Source: the NIST ThermoML archive (doi:10.1021/je800497u)
